Among the data in ChEMBL document CHEMBL3045840, “Application of pocket modeling and k-nearest neighbor molecular field analysis (kNN-MFA) for designing of some anticoagulants: potential factor IXa inhibitors” (Med Chem Res, 2013) are IC50 and logP values, retold here.

In brackets after ≈: the same amount, converted by molar mass.

A short description of series [1]: Anticoagulant activity in plasma assessed as elongation in mean prothrombin time after 5 min by Quick's method. Type of series: functional, cell-free.
Series [2] is described as follows: Octanol-water partition coefficient, log P of the compound. Type of series: physicochemical.

As a reminder, the IC50 is the concentration that inhibits the measured activity by half. Broadly, the logP is a log measure of how a compound divides between an organic and an aqueous phase. Regarding `CC(=O)Oc1ccccc1-c1nnc(NC(=O)C/C(C)=N/c2ccccn2)s1`, in series [1], the IC50 is 2600 µg/mL (≈ 6.57 mM). Also, in series [2], the logP amounted to 3.65.

Regarding `C/C(CC(=O)Nc1nnc(-c2ccc(O)cc2)s1)=N\c1ccc([N+](=O)[O-])cn1`, the IC50 in series [1] came out at 2800 µg/mL (≈ 7.03 mM). In addition, the logP in series [2] was found to be 3.34.

Take `C/C(CC(=O)Nc1nnc(-c2ccc(N)cc2)s1)=N\c1ccccn1`: the IC50 in series [1] was 3500 µg/mL (≈ 9.93 mM). In series [2], the logP amounted to 3.3.

For the molecule `C/C(CC(=O)Nc1nnc(-c2ccc([N+](=O)[O-])cc2)s1)=N\c1ccccn1`, the IC50 in series [1] was found to be 1200 µg/mL (≈ 3.14 mM). In addition, the logP in series [2] was 3.63.

In the case of `C/C(CC(=O)Nc1nnc(/C=C/c2ccccc2)s1)=N\c1ccccn1`, the IC50 in series [1] was found to be 2400 µg/mL (≈ 6.6 mM). For the same molecule, the logP in series [2] came to 4.22.

For `C/C(CC(=O)Nc1nnc(-c2ccc(O)cc2)s1)=N\c1ccccn1`, in series [1], the IC50 was found to be 3100 µg/mL (≈ 8.77 mM). In series [2], this molecule yielded a logP of 3.43.

As for `C/C(CC(=O)Nc1nnc(-c2ccc(N)cc2)s1)=N\c1ccc([N+](=O)[O-])cn1`, the IC50 in series [1] turned out to be 2700 µg/mL (≈ 6.79 mM). The molecule further returned a logP in series [2] of 3.21.

As for `CC(=O)Oc1ccccc1-c1nnc(NC(=O)C/C(C)=N/c2ccc([N+](=O)[O-])cn2)s1`, in series [1], the IC50 amounted to 2100 µg/mL (≈ 4.77 mM). The same molecule had a logP in series [2] of 3.55.

Turning to `C/C(CC(=O)Nc1nnc(-c2ccc([N+](=O)[O-])cc2)s1)=N\c1ccc([N+](=O)[O-])cn1`, the IC50 in series [1] came out at 1200 µg/mL (≈ 2.81 mM). The logP in series [2] came out at 3.54.

Consider `C/C(CC(=O)Nc1nnc(/C=C/c2ccccc2)s1)=N\c1ccc([N+](=O)[O-])cn1`, for which the IC50 in series [1] amounted to 3000 µg/mL (≈ 7.34 mM). The molecule also yielded a logP in series [2] of 4.13.
